Experimental data reported in patent publication US10828315B2 (Madrigal Pharmaceuticals, Inc., priority 2013, dated 2020).
Structures can show the parent of a compound that is named as a salt.

Test system: HER2
Test: HER2 degradation assay with BT-474 cell line (Example 12, FACS)
Assay type: cell-based, human
Conditions: not given
Text: HER2 has emerged as a key target for anticancer drugs due to its intrinsic involvement in the phosphatidylinositol-3-kinase-Akt/protein kinase B (PI3K-Akt) and the mitogen-activated protein kinase (MAPK) pathways, both of which suppress apoptosis and promote tumor cell survival, gene transcription, angiogenesis, cellular proliferation, migration, mitosis, and differentiation. The degradation of HER2 is a measure of efficacy of anticancer therapeutics that target Hsp90. Accordingly, the SDC-TRAP molecules of the invention that comprise a binding moiety that binds Hsp90 were tested in the following HER2 degradation assay.
BT-474 cells (human breast cancer cell line ATCC HTB-20) were obtained from ATCC and seeded into 12-well tissue culture plates at 0.2×10^6/1.8 mL/well. […] Each test compound was titrated in 4-fold dilutions from 5 μM to 78 nM with DMSO and 200 μL of the titration was added to each well of the cell plate. The DMSO final concentration was 0.2%. Cells were incubated overnight at 37° C. in 5% CO2.
Media was decanted from the plate, cells were washed 1× in PBS. 400 μL trypsin (EDTA) per well was added, and the cells were incubated for 2 to 3 minutes. Cells were collected into FACS tubes containing 1 ml culture medium to neutralize the trypsin and were centrifuged for 5 minutes at 1200 rpm. Supernatant was decanted and the cells were resuspended in 5 μL FITC (anti HER2/nu)/200 μL staining buffer (1×PBS+1% FBS+0.05% Sodium Azide)/tube. Controls were 5 μL IgG isotype control and staining buffer only. Tubes were incubated for 30 minutes in the dark at room temperature. 1 mL staining buffer was added to each tube and the tubes were centrifuged for 6 minutes at 1200 rpm. The supernatant was decanted and 300 μL staining buffer was added to each tube, which was store at 4° C. fpr FACS (cytometer) analysis. The cytometer readout was normalized and the potency of each compound is evaluated with IC50 calculated with XLfit™ software.
For `CCNC(=O)c1nnc(-c2cc(C(C)C)c(O)cc2O)n1-c1ccc(C(=O)N2CCN(c3ccc(OC(=O)Nc4cccc5c4CN(C4CCC(=O)NC4=O)C5=O)cc3)CC2)cc1` (stereo not shown), the IC50 was 254 nM. For `CCc1c2c(nc3ccc(OC(=O)N4CCC(Oc5ccc(-n6c(O)nnc6-c6cc(C(C)C)c(O)cc6O)cc5)CC4)cc13)-c1cc3c(c(=O)n1C2)COC(=O)[C@]3(O)CC` [SDC-TRAP-0011, (S)-4,11-diethyl-4-hydroxy-3,14-dioxo-3,4,12,14-tetrahydro-1H-pyrano[3′,4′:6,7]indolizino[1,2-b]quinolin-9-yl 4-(4-(3-(2,4-dihydroxy-5-isopropylphenyl)-5-hydroxy-4H-1,2,4-triazol-4-yl)phenoxy) piperidine-1-carboxylate], the IC50 was > 5000 nM. For `CCc1c2c(nc3ccc(O)cc13)-c1cc3c(c(=O)n1C2)COC(=O)[C@@]3(CC)OC(=O)N1CCC(Oc2ccc(-n3c(O)nnc3-c3cc(C(C)C)c(O)cc3O)cc2)CC1` [SDC-TRAP-0012, (S)-4,11-diethyl-9-hydroxy-3,14-dioxo-3,4,12,14-tetrahydro-1H-pyrano[13′,4′:6,7]indolizino[1,2-b]quinolin-4-yl-4-(4-(3-(2,4-dihydroxy-5-isopropylphenyl)-5-hydroxy-4H-1,2,4-triazol-4-yl)phenoxy)piperidine-1-carboxylate hydrochloride], the IC50 was > 5000 nM. With `CCc1c2c(nc3ccc(O)cc13)-c1cc3c(c(=O)n1C2)COC(=O)[C@@]3(CC)OC(=O)N1CCC(COc2ccc(-n3c(O)nnc3-c3cc(C(C)C)c(O)cc3O)cc2)CC1` [SDC-TRAP-0014, (S)-4,11-diethyl-9-hydroxy-3,14-dioxo-3,4,12,14-tetrahydro-1H-pyrano[3,4:6,7]indolizino[1,2-b]quinolin-4-yl 4-((4-(3-(2,4-dihydroxy-5-isopropylphenyl)-5-hydroxy-4H-1,2,4-triazol-4-yl)phenoxy)methyl)piperidine-1-carboxylate] the IC50 was > 5000 nM. In the case of `CCc1c2c(nc3ccc(OC(=O)NCCOCCn4ccc5cc(-n6c(O)nnc6-c6cc(C(C)C)c(O)cc6O)ccc54)cc13)-c1cc3c(c(=O)n1C2)COC(=O)C3(O)CC` (stereo not shown) [SDC-TRAP-0016, 4,11-diethyl-4-hydroxy-3,14-dioxo-3,4,12,14-tetrahydro-1H-pyrano[3′,4′:6,7]indolizino[1,2-b]quinolin-9-yl (2-(2-(5-(3-(2,4-dihydroxy-5-isopropylphenyl)-5-hydroxy-4H-1,2,4-triazol-4-yl)-1H-indol-1-yl)ethoxy)ethyl)carbamate], the IC50 is reported as > 5000 nM. Work on `CCc1c2c(nc3ccc(O)cc13)-c1cc3c(c(=O)n1C2)COC(=O)C3(CC)OC(=O)CCC(=O)NCCn1ccc2cc(-n3c(O)nnc3-c3cc(C(C)C)c(O)cc3O)ccc21` (stereo not shown) [SDC-TRAP-0026] yielded an IC50 of 1780 nM. With `CCc1c2c(nc3ccc(O)cc13)-c1cc3c(c(=O)n1C2)COC(=O)C3(CC)OC(=O)N1CCN(C(=O)CCc2ccc(-n3c(O)nnc3-c3cc(C(C)C)c(O)cc3O)cc2)CC1` (stereo not shown) [SDC-TRAP-0060, 4,11-diethyl-9-hydroxy-3,14-dioxo-3,4,12,14-tetrahydro-1H-pyrano[3′,4′:6,7]indolizino[1,2-b]quinolin-4-yl 4-(3-(4-(3-(2,4-dihydroxy-5-isopropylphenyl)-5-hydroxy-4H-1,2,4-triazol-4-yl)phenyl)propanoyl)piperazine-1-carboxylate] the IC50 was > 5000 nM. With `CCc1c2c(nc3ccc(OC(=O)N(C)CCCN4CCN(Cc5ccc(-n6c(O)nnc6-c6cc(C(C)C)c(O)cc6O)cc5)CC4)cc13)-c1cc3c(c(=O)n1C2)COC(=O)[C@]3(O)CC` [SDC-TRAP-0065, (S)-4,11-diethyl-4-hydroxy-3,14-dioxo-3,4,12,14-tetrahydro-1H-pyrano[3′,4′:6,7]indolizino[1,2-b]quinolin-9-yl (3-(4-(4-(3-(2,4-dihydroxy-5-isopropylphenyl)-5-hydroxy-4H-1,2,4-triazol-4-yl)benzyl)piperazin-1-yl)propyl)(methyl)carbamate] the IC50 was 661 nM. Molecule `CCc1c2c(nc3ccc(OC(=O)N4CCC(CN5CCC(Cc6ccc(-n7c(O)nnc7-c7cc(C(C)C)c(O)cc7O)cc6)CC5)CC4)cc13)-c1cc3c(c(=O)n1C2)COC(=O)C3(O)CC` (stereo not shown) [SDC-TRAP-0067, 4,11-diethyl-4-hydroxy-3,14-dioxo-3,4,12,14-tetrahydro-1H-pyrano[3′,4′:6,7]indolizino[1,2-b]quinolin-9-yl 4-((4-(4-(3-(2,4-dihydroxy-5-isopropylphenyl)-5-hydroxy-4H-1,2,4-triazol-4-yl)benzyl)piperidin-1-yl)methyl)piperidine-1-carboxylate] has an IC50 of 196 nM.

Test system: not listed separately
Test: Mouse plasma stability protocol, up to 1 h (Examples 16-18)
Conditions: % Remaining of parent after 1 h incubation in mouse plasma at 37° C. (10 μM)
In the case of `CCc1c2c(nc3ccc(OC(=O)N4CCN(S(=O)(=O)N5CCC(CCn6ccc7cc(-n8c(O)nnc8-c8cc(C(C)C)c(O)cc8O)ccc76)CC5)CC4)cc13)-c1cc3c(c(=O)n1C2)COC(=O)C3(O)CC` (stereo not shown) [SDC-TRAP-0361, 4,11-diethyl-4-hydroxy-3,14-dioxo-3,4,12,14-tetrahydro-1H-pyrano[3′,4′: 6,7]indolizino[1,2-b]quinolin-9-yl 4-((4-(2-(5-(3-(2,4-dihydroxy-5-isopropylphenyl)-5-hydroxy-4H-1,2,4-triazol-4-yl)-1H-indol-1-yl)ethyl)piperidin-1-yl)sulfonyl)piperazine-1-carboxylate], the “% Remaining (1 h)” value is reported as 25.6%. For `CCNC(=O)c1nnc(-c2cc(C(C)C)c(O)cc2O)n1-c1ccc(S(=O)(=O)N2CCC(C(=O)N3CCN(C(=O)Oc4ccc5nc6c(c(CC)c5c4)Cn4c-6cc5c(c4=O)COC(=O)C5(O)CC)CC3)CC2)cc1` (stereo not shown) [SDC-TRAP-0383, 4,11-diethyl-4-hydroxy-3,14-dioxo-3,4,12,14-tetrahydro-1H-pyrano[3′,4′:6,7]indolizino[1,2-b]quinolin-9-yl 4-(1-((4-(3-(2,4-dihydroxy-5-isopropylphenyl)-5-(ethylcarbamoyl)-4H-1,2,4-triazol-4-yl)phenyl)sulfonyl)piperidine-4-carbonyl)piperazine-1-carboxylate], the “% Remaining (1 h)” value was 47.6%. For `CCNC(=O)c1nnc(-c2cc(C(C)C)c(O)cc2O)n1-c1ccc2c(c1)CN(S(=O)(=O)C1CCN(C(=O)Oc3ccc4nc5c(c(CC)c4c3)Cn3c-5cc4c(c3=O)COC(=O)C4(O)CC)CC1)C2` (stereo not shown) [SDC-TRAP-0391, 4,11-diethyl-4-hydroxy-3,14-dioxo-3,4,12,14-tetrahydro-1H-pyrano[3′,4:6,7]indolizino[1,2-b]quinolin-9-yl 4-((5-(3-(2,4-dihydroxy-5-isopropylphenyl)-5-(ethylcarbamoyl)-4H-1,2,4-triazol-4-yl)isoindolin-2-yl)sulfonyl)piperidine-1-carboxylate], the “% Remaining (1 h)” value was 15.2%. For `CCNC(=O)c1nnc(-c2cc(C(C)C)c(O)cc2O)n1-c1ccc2c(c1)CN(C(=O)Oc1ccc3nc4c(c(CC)c3c1)Cn1c-4cc3c(c1=O)COC(=O)C3(O)CC)C2` (stereo not shown) [SDC-TRAP-0392, 4,11-diethyl-4-hydroxy-3,14-dioxo-3,4,12,14-tetrahydro-1H-pyrano[3′,4′:6,7]indolizino[1,2-b]quinolin-9-yl 5-(3-(2,4-dihydroxy-5-isopropylphenyl)-5-(ethylcarbamoyl)-4H-1,2,4-triazol-4-yl)isoindoline-2-carboxylate], the “% Remaining (1 h)” value was 44.7%. With `CCNC(=O)c1nnc(-c2cc(C(C)C)c(O)cc2O)n1-c1ccc(S(=O)(=O)N2CCC(C(=O)N3CCN(C(=O)Oc4ccc5nc6c(c(CC)c5c4)Cn4c-6cc5c(c4=O)COC(=O)C5(O)CC)C(C)C3)CC2)cc1` (stereo not shown) [SDC-TRAP-0396, 4,11-diethyl-4-hydroxy-3,14-dioxo-3,4,12,14-tetrahydro-1H-pyrano[3′,4:6,7]indolizino[1,2-b]quinolin-9-yl 4-(1-((4-(3-(2,4-dihydroxy-5-isopropylphenyl)-5-(ethylcarbamoyl)-4H-1,2,4-triazol-4-yl)phenyl)sulfonyl)piperidine-4-carbonyl)-2-methylpiperazine-1-carboxylate] the “% Remaining (1 h)” value was 71.6%. For `CCNC(=O)c1nnc(-c2cc(C(C)C)c(O)cc2O)n1-c1ccc(C(=O)N2CCN(c3ccc(OC(=O)Nc4cccc5c4C(=O)N(C4CCC(=O)NC4=O)C5=O)c(OC)c3)CC2)cc1` (stereo not shown) [SDC-TRAP-0398, 4-(4-(4-(3-(2,4-dihydroxy-5-isopropylphenyl)-5-(ethylcarbamoyl)-4H-1,2,4-triazol-4-yl)benzoyl)piperazin-1-yl)-2-methoxyphenyl (2-(2,6-dioxopiperidin-3-yl)-1,3-dioxoisoindolin-4-yl)carbamate], the “% Remaining (1 h)” value was 1.40%. In the case of `CCNC(=O)c1nnc(-c2cc(C(C)C)c(O)cc2O)n1-c1ccc(C(=O)N2CCN(c3cc(C)c(OC(=O)Nc4cccc5c4C(=O)N(C4CCC(=O)NC4=O)C5=O)c(C)c3)CC2)cc1` (stereo not shown) [SDC-TRAP-0400, 4-(4-(4-(3-(2,4-dihydroxy-5-isopropylphenyl)-5-(ethylcarbamoyl)-4H-1,2,4-triazol-4-yl)benzoyl)piperazin-1-yl)-2,6-dimethylphenyl (2-(2,6-dioxopiperidin-3-yl)-1,3-dioxoisoindolin-4-yl)carbamate], the “% Remaining (1 h)” value is reported as 70.4%.
